Data reported in PMC3138742 (PLoS ONE, 2011).

Key:
[1] = Pharmacokinetics after single oral dose; conditions: dog, in vivo; dogs, single oral dose 90 mg/kg; unpublished data
[2] = Body weights in xenograft studies; assay type: in vivo; conditions: nude mice, xenograft models, p.o. twice daily
Experimental: The mice were housed and maintained under specific-pathogen free (SPF) conditions. All animal procedures were performed according to the protocol approved by the Institutional Animal Care and Use Committee at Shanghai Institute of Materia Medica, Chinese Academy of Sciences (SIMM-AE-DJ-2010-01). Under sterile conditions, well-developed tumors were cut into 1-mm^3 fragments and transplanted s.c. into the right flank of nude mice using a trocar. When the tumor reached a volume reached 100 to 200 mm^3, the mice were randomly assigned into control and treatment groups. […] The sizes of the tumors were measured twice per week using microcalipers. The tumor volume (V) was calculated as follows: V = (length×width^2)/2. The body weights of the mice were observed simultaneously.

PDGFRβ = PDGFRβ (Homo sapiens, UniProt P09619); conditions: cell-free
Experimental: (§1) The tyrosine kinase activities were determined using enzyme-linked immunosorbant assay (ELISA). The serine/threonine kinase activities were detected by Caliper Mobility Shift Assay on EZ Reader (Caliper Life Sciences, MA) according to the instruction.
(§2) The kinase domain of EGFR, ErbB-2, IGF1R, VEGFR2, FGFR1, PDGFRα, c-Src, c-Met, RON, c-Kit, EphA2 and EphB2 were expressed using the Bac-to-Bac^TM baculovirus expression system (Invitrogen, Carlsbad, CA, USA) and purified on Ni-NTA columns (QIAGEN Inc., Valencia, CA, USA). VEGFR1, PDGFRβ and c-Abl were purchased from Upstate Biotechnology Inc. (Charlottesville, Virginia, USA). […] EGF was purchased from R&D, Minneapolis, […]. Poly(Glu-Tyr)(4:1), the substrate of tyrosine kinase, was from Sigma-Aldrich Corp. St. Louis, MO, USA.
(§3) The tyrosine kinase activities were determined in 96-well ELISA plates (Corning, NY, USA) precoated with 20 μg/mL Poly (Glu,Tyr)4:1. First, 80 μL of 5 μM ATP solution diluted in kinase reaction buffer (50 mM HEPES pH 7.4, 20 mM MgCl2, 0.1 mM MnCl2, 0.2 mM Na3VO4, 1 mM DTT) was added to each well. […] Subsequently, the kinase reaction was initiated by the addition of purified tyrosine kinase proteins diluted in 10 μL of kinase reaction buffer solution. Experiments at each concentration were performed in duplicate. After incubation for 60 min at 37 °C, the plate was washed three times with phosphate buffered saline (PBS) containing 0.1% Tween 20 (T-PBS). Next, 100 μL anti-phosphotyrosine antibody (PY99, 1:500 dilution) diluted in T-PBS containing 5 mg/mL BSA was added. After 30 min incubation at 37 °C, the plate was washed three times as before. Horseradish peroxidase-conjugated goat anti-mouse IgG (100 μL) diluted 1:2000 in T-PBS containing 5 mg/ml BSA was added. The plate was reincubated at 37 °C for 30 min, and then washed with PBS.

EphB2 = EphB2 (Homo sapiens, UniProt P29323); conditions: EphB2, cell-free
Experimental: as §1, §2, §3

c-Src = c-Src (Homo sapiens, UniProt P12931); conditions: cell-free
Experimental: as §1, §2, §3

ErbB2 = ErbB2 (Homo sapiens, UniProt P04626); conditions: ErbB2, cell-free; means ± SD
Experimental: as §1, §2, §3

IGF1R = IGF1R (Homo sapiens, UniProt P08069); conditions: cell-free
Experimental: as §1, §2, §3

c-Kit = c-Kit (Homo sapiens, UniProt P10721); conditions: cell-free
Experimental: as §1, §2, §3

PDGFRα = PDGFRα (Homo sapiens, UniProt P16234); conditions: cell-free
Experimental: as §1, §2, §3

EGFR = EGFR (Homo sapiens, UniProt P00533); conditions: cell-free, means ± SD
Experimental: as §1, §2, §3

[3] = Body weights in FVB-2/N^neu transgenic mouse study; assay type: in vivo; conditions: FVB-2/N^neu mice, oral twice daily for 3 wk
Text: (§4) Thirty eight- to forty four-week-old female FVB/N^neu mice were obtained from Shanghai Laboratory Animal Center. The animals were housed under specific pathogen-free conditions.

[4] = Pharmacokinetics after single oral dose; conditions: rat, in vivo; rats, single oral dose 90 mg/kg; unpublished data
A549 cells [5] = assay: Cell proliferation SRB assay; assay type: cell-based; conditions: Homo sapiens, A549, 72 h, range given for four cell lines together, read-out: IC50 (antiproliferative)
NCI-H1975 cells = assay: Cell proliferation SRB assay; assay type: cell-based, human; conditions: NCI-H1975 cells (EGFR T790M/L858R)
Experimental: Cell viability was determined using sulforhodamine B assay. IC50 values were determined based on the results of three independent experiments. […] Whole-cell lysates were assayed for total EGFR and phosphorylation of EGFR by immunoblotting. A representative anti-GAPDH immunoblot is shown as a loading control. […] Cell viability was determined using sulforhodamine B assay.
Cell proliferation was evaluated using the SRB (Sulforhodamine B) assay as previously described. Briefly, cells were seeded into 96-well plates and grown for 24 h. […] The medium remained unchanged until the completion of the experiment. The cells were then fixed with 10% precooled trichloroacetic acid (TCA) for 1 h at 4°C and stained for 15 min at room temperature with 100 μL of 4 mg/mL SRB solution (Sigma) in 1% acetic acid. The SRB was then removed, and the cells were quickly rinsed five times with 1% acetic acid. After cells were air-dried, protein-bound dye was dissolved in 150 μL of 10 mmol/L Tris base for 5 min and measured at 515 nm using a multiwell spectrophotometer (VERSAmax, Molecular Devices). […] The IC50 value was obtained by the Logit method and was determined from the results of at least 3 independent tests.

[6] = system: EGFR and ErbB2 phosphorylation in SK-OV-3 xenograft tumors; assay: Pharmacodynamic effect in tumor extracts (Western blot); assay type: in vivo, nude mice; conditions: SK-OV-3 tumors, single dose 100 mg/kg
Experimental: Tumors were harvested at indicated times (n = 3 per time point) after treatment, immediately frozen in liquid nitrogen, and then homogenized in 500 µL protein extraction solutions (SBS Genetech, Shanghai, China). Tumor extracts were subjected to SDS-PAGE followed by immunoblotting.
Body weights of the nude mice were measured concurrently (B). […] Tumors were harvested at the indicated times after treatment and immediately frozen in liquid nitrogen. Western blot analysis was performed to determine the levels of phosphorylated EGFR and ErbB2.

[7] = system: FVB-2/N^neu transgenic mouse model; assay: Spontaneous breast cancer in FVB-2/N^neu transgenic mouse, tumor growth; assay type: in vivo; conditions: FVB-2/N^neu mice
Text: as §4

A549 cells [8] = assay: Anchorage-independent growth on soft agar; assay type: cell-based, human; conditions: two weeks
Experimental: The culture was maintained at 37°C in a 5% CO2 atmosphere for two weeks. The average colony number was calculated and colonies were photographed. […] Anchorage-independent cell transformation assay. Cell transformation was detected in SK-OV-3 and A549 cells, respectively. […] The culture were maintained in a 37°C, 5% CO2 incubator for 1-2 weeks, and the cell colonies were scored using a microscope and the Image-Pro PLUS computer software program (Media Cybernetics, Silver Spring, MD).

Chain of PDGFRβ (P09619 33-1106): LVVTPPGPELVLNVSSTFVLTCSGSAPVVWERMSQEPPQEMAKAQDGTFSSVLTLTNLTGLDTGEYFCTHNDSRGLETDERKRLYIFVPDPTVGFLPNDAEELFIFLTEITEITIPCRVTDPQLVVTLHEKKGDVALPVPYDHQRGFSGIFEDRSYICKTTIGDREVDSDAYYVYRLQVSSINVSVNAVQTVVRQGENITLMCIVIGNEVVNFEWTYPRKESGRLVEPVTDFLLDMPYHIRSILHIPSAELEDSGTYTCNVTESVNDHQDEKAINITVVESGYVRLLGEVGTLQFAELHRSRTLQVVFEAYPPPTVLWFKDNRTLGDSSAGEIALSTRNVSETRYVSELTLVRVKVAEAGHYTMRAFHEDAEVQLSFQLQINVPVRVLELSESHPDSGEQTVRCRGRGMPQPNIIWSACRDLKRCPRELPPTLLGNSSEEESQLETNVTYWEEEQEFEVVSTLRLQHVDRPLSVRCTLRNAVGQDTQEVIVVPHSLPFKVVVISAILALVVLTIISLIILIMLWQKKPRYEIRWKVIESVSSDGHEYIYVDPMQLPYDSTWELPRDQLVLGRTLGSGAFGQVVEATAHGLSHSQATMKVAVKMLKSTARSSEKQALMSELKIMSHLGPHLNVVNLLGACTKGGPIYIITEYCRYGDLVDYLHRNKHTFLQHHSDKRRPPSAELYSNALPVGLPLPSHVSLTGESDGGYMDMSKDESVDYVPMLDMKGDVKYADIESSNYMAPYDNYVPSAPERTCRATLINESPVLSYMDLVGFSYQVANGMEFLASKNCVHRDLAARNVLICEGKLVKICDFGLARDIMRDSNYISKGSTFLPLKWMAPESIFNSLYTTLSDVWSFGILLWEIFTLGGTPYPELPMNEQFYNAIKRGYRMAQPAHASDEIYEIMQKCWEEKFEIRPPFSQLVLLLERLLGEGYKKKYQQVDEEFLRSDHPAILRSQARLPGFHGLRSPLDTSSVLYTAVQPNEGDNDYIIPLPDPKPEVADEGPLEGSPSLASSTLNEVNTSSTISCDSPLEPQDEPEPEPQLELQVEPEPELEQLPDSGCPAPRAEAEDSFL
Chain of c-Src (P12931 270-523 limits assumed): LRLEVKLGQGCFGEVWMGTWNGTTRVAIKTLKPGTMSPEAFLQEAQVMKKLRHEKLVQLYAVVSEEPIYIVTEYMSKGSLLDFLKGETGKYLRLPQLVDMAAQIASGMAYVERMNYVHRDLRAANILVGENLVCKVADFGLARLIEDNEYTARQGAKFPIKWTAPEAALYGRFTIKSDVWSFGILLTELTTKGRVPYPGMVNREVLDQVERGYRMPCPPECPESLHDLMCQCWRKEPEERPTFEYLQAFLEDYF
Chain of EGFR (P00533 712-979 limits assumed): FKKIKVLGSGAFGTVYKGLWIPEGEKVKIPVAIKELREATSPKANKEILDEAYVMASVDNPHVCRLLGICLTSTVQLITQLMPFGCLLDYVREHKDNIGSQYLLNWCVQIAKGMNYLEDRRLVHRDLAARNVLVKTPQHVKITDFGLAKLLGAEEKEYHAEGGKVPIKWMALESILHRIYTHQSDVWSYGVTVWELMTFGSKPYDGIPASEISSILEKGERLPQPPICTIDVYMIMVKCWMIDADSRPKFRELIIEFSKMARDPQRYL
Chain of ErbB2 (P04626 720-987 limits assumed): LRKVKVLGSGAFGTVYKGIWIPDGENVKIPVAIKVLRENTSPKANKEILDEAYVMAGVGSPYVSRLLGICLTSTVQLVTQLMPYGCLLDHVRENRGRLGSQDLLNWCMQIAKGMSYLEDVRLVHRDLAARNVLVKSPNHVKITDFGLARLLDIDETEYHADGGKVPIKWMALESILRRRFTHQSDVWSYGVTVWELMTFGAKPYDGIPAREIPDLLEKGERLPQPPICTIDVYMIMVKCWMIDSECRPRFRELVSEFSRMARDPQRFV
Chain of IGF1R (P08069 999-1274 limits assumed): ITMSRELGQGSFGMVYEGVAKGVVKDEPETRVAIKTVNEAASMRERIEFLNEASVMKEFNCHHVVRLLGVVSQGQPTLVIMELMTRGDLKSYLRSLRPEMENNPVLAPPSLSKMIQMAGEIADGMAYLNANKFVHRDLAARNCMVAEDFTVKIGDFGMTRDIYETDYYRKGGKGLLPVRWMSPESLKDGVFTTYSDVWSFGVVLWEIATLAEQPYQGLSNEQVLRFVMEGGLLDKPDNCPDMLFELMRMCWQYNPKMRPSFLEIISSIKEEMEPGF
Chain of c-Kit (P10721 589-937 limits assumed): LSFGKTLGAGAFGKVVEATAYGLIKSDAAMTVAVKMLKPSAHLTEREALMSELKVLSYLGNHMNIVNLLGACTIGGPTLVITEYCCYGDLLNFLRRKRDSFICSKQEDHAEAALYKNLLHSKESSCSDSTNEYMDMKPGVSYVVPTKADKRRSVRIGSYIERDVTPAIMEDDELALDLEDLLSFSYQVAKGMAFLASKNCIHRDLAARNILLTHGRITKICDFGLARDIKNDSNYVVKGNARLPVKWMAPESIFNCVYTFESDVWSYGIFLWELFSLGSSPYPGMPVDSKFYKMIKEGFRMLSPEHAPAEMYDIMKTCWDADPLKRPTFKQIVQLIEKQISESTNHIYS
Chain of EphB2 (P29323 621-884 limits assumed): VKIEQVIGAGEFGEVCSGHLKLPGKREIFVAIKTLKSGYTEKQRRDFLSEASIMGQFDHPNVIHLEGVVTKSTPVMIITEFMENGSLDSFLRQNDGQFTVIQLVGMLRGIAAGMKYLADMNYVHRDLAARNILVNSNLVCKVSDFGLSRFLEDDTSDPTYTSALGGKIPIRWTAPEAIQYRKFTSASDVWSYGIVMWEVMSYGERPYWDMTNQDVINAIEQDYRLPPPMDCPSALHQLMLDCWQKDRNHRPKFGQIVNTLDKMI
Chain of PDGFRα (P16234 593-954 limits assumed): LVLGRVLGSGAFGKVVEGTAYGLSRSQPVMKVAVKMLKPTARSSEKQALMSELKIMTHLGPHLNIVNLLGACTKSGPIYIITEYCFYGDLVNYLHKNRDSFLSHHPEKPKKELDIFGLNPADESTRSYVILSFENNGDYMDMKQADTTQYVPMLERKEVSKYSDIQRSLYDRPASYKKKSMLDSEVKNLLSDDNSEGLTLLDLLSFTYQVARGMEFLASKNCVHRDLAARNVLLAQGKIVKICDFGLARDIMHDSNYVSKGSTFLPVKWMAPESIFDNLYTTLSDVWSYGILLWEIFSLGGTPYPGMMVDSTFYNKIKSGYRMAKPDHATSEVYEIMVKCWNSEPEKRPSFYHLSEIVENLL

C=CC(=O)Nc1ccc2ncnc(Nc3ccc(OCc4cccc(F)c4)c(Cl)c3)c2c1 [AST1306]
half-life [1]: < 138 min
body weights during treatment [2]: no obvious differences
IC50 (PDGFRβ): > 10 µM
IC50 (EphB2): > 10 µM
IC50 (c-Src): > 10 µM
IC50 (ErbB2): 3 ± 1.5 nM
IC50 (IGF1R): > 10 µM
IC50 (c-Kit): > 10 µM
IC50 (PDGFRα): > 10 µM
IC50 (EGFR): 0.5 ± 0.2 nM
decrease of body weights during treatment [3]: less than 20%
half-life [4]: < 216 min
IC50 (A549 cells [5]): 6.2 to 7.5 µM
inhibition of cell growth (NCI-H1975 cells): inhibited the growth
time to evident inhibition of EGFR and ErbB2 activation in tumors [6]: ≤ 2 h
tumor growth ([7]; oral twice daily for 3 wk): dramatic suppression of tumor growth
tumors after treatment for 11 d ([7]; oral twice daily, 11 d): tumors almost completely disappeared
anchorage-independent growth on soft agar (A549 cells [8]): dramatically inhibit the growth
